Structures are written as SMILES. pIC50: −log10 of the molar value.

This passage reports PGDS inhibition, antiasthmatic effect and IC50 results from patent US8202863B2 (Aventis Pharmaceuticals Inc., priority 2005, dated 2012).

The subject of one assay is PGDS.
Assay: not given
Conditions: literature report; cited from earlier work.
Take `c1ccc(C(OC2CCN(CCCc3nn[nH]n3)CC2)c2ccccc2)cc1` [HQL-79]: the PGDS inhibition entry is recorded as “weak PGDS inhibitor”.

Another assay has as its system guinea pig.
Assay: not given
As to conditions: guinea pig model; cited from earlier work.
For the molecule `c1ccc(C(OC2CCN(CCCc3nn[nH]n3)CC2)c2ccccc2)cc1` [HQL-79], the antiasthmatic effect result is “antiasthmatic”.

The target in another assay is T1, Hematopoietic PGD2 Synthase (Homo sapiens, UniProt O60760). Kind of assay: Fluorescence Polarization Assay (Assay 1). Type of assay: binding. Conditions: assigned. From the text: (§1) The compounds of the present invention can be tested for enzymatic inhibiting activity against PGD2 Synthase according to either one of the following assays.
T1 sequence (O60760 whole entry): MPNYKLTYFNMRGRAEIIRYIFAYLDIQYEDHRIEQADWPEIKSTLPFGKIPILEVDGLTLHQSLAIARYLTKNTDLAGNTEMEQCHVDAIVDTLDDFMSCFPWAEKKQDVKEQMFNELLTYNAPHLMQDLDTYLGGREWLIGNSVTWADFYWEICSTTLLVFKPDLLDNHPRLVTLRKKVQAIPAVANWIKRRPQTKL
(§2) Assay 1: Fluorescence Polarization Assay
(§3) As described in PCT publication WO 2004/016223, Example II.
In turn, `O=C(Nc1ccc2c(c1)CS(=O)(=O)N2)c1cnc(-c2ccccc2)nc1` [Example 8, 2-Phenyl-pyrimidine-5-carboxylic acid (2,2-dioxo-2,3-dihydro-1H-2lamda*6*-benzo[c]isothiazol-5-yl)-amide] showed a pIC50 of 8.60.

`O=C(NC1CCN(Cc2ncc[nH]2)CC1)c1cnc(-c2ccccc2)nc1` [Example 9] showed a pIC50 of 8.70.

`O=C(NCCN1CCNC1=O)c1cnc(-c2ccccc2)nc1` [Example 33, 2-Phenyl-pyrimidine-5-carboxylic acid [2-(2-oxo-imidazolidin-1-yl)-ethyl]-amide] gave a pIC50 of 7.49.

For `O=C(NCCc1c[nH]cn1)c1cnc(-c2ccccc2)nc1` [Example 34, 2-Phenyl-pyrimidine-5-carboxylic acid [2-(1H-imidazol-4-yl)-ethyl]-amide], the pIC50 is 7.46.

The molecule `O=C(NCCc1ccc2c(c1)OCO2)c1cnc(-c2ccccc2)nc1` [Example 82, 2-Phenyl-pyrimidine-5-carboxylic acid (2-benzo[133]dioxol-5-yl-ethyl)-amide] had a pIC50 of 8.70.

In turn, `O=C(Nc1ccc2[nH]ncc2c1)c1cnc(-c2ccccc2)nc1` [Example 83, 2-Pheny-pyrimidine-5-carboxylic acid (1H-indazol-5-yl)-amide] had a pIC50 of 7.64.

`O=C(NCc1ccc(-c2cnns2)cc1)c1cnc(-c2ccccc2)nc1` [Example 84] showed a pIC50 of 8.19.

In turn, `O=C(Nc1ccccc1)c1cnc(C2CCCCC2)nc1` [Example 114, 2-Cyclohexyl-pyrimidine-5-carboxylic acid phenylamide] had a pIC50 of 5.30.

For a further assay, the system named is rat.
Assay: not given
Conditions: rat model; cited from earlier work.
On to `c1ccc(C(OC2CCN(CCCc3nn[nH]n3)CC2)c2ccccc2)cc1` [HQL-79], for which the antiasthmatic effect result is given as “antiasthmatic”.

The next assay deals with T1, Hematopoietic PGD2 Synthase. Kind of assay: Fluorescence Polarization Assay or EIA assay (which one not stated). It is filed as biochemical. As to conditions: assay not assigned in b678 (Fluorescence Polarization or EIA). The procedure:
as §1, §2, §3
Assay 2: Enzyme Immunoassay (EIA) Method
• 2. Dilute 2 μL of each above concentration of compound to 38 μL of reaction buffer in 96-well plates and mix. IV. Enzyme and Substrate Solution Preparation • 1. Preparation of 0.39 ng/μL enzyme solution (0.35 ng/μL at final after compound addition). • Mix 4 μL of 4 mg/mL human h-PGDS with 396 μL of reaction buffer (to give enzyme concentration 40 μg/mL). Add 46.8 μL of 40 μg/mL h-PGDS to 4.753 mL of reaction buffer to give a total volume of 4.8 mL • 2. Preparation of Substrate Solution (PGH2): Add 0.375 mL of 0.1 mg/mL of PGH2 to 1.625 mL acetone. V. Enzyme Reaction: • 1. Add 60 μL of enzyme solution to compound well and positive control (without compound) in U-bottom polypropylene plate on ice. • 2. Add 60 μL of reaction buffer and 6.6 μL of 5% DMSO in reaction buffer into negative control wells in the plate. • 3. Add 6.6 μL of diluted compound in reaction buffer to the compound wells and mix. • 4. Add 6.6 μL of 5% DMSO in reaction buffer to the positive control well. • 5. Incubate the plate in ice for at least 30 min. • 6. Add 20 μL of substrate (PGH2) solution to compound, negative and positive control wells in the U-bottom 96 well plate on ice. • 7. Dry the plate in cold room for about 25-28 min. • 8. Pipette 45 μL of enzyme solution (above) into 96-wells with dried PGH2 and mix 3 times. Incubate on the ice for 1 min. • 9. Add 45 μL of FeCl2 solution into each wells and mix. • 10. Add 90 μL of MOX solution and mix. • 11. Incubate for 30 min at 60° C. • 12. Dilute the samples 2500× with EIA buffer. VI. EIA assay • Perform the assay according to the procedure in EIA kit provided by Cayman. Total PGD2 levels (pg/mL) were determined in the samples by EIA kits (Caymen Chemical, Catalog No. 500151) Calculate amount of PGD2 as below • Calculated % Positive control according to the equation below; % Positive control=(Compound value−Negative control)/(Positive value-Negative control value)×100. % Positive control=(Compound value-Negative control)×100(Positive Value-Negative Control Value) • Compound value=PGD2 levels (pg/mL) obtained from the standard curve in EIA assay for the samples with compound • Negative control value=PGD2 levels (pg/mL) obtained from the standard curve in EIA assay for the samples without enzyme • Positive control value=PGD2 levels (pg/mL) obtained from the standard curve in EIA assay for the samples with enzyme but without compound • IC50s are determined by excel fit to get the x value when y=½Ymax using 4 parameter logistic model for the IC50 curves. Results
`O=C(Nc1ccc2nc(CCN3CCCC3)oc2c1)c1cnc(-c2ccccc2)nc1` [Example 11, 2-Phenyl-pyrimidine-5-carboxylic acid [2-(2-pyrrolidin-1-yl-ethyl)-benzooxazol-6-yl]-amide] had a pIC50 of 7.74.

The molecule `O=C(Nc1cc[nH]c(=O)n1)c1cnc(-c2ccccc2)nc1` [Example 29, 2-Phenyl-pyrimidine-5-carboxylic acid (2-oxo-1,2-dihydro-pyrimidin-4-yl)-amide] showed a pIC50 of 7.82.

As for `O=C(NCc1cccc(S(=O)(=O)NCCc2c[nH]cn2)c1)c1cnc(-c2cccc(F)c2)nc1` [Example 60, 2-(3-Fluoro-phenyl)-pyrimidine-5-carboxylic acid 3-[2-(1H-imidazol-4-yl)-ethylsulfamoyl]-benzylamide], the pIC50 is 7.21.

`Cc1nc(-c2ncc(C(=O)NC3CCOCC3)cn2)no1` [Example 77, 2-(5-Methyl-[1,2,4]oxadiazole-3-yl)-pyrimidine-5-carboxylic acid (tetrahydro-pyran-4-yl)-amide] showed a pIC50 of 6.29.

Consider `O=C(NCc1ccc(N2CCOCC2)cc1)c1cnc(-c2ccccc2)nc1` [Example 87, 2-Pheny-pyrimidine-5-carboxylic acid 4-morpholin-4-ylbenzylamide], for which the negative-log IC50 (pIC50) is 7.92.

On to `O=C(NCc1ccc2occc2c1)c1cnc(-c2ccccc2)nc1` [Example 90, 2-Pheny-pyrimidine-5-carboxylic acid (benzofuran-5-ylmethyl)-amide], for which the pIC50 is 8.15.

`NC(=O)c1ccc(CNC(=O)c2cnc(-c3ccccc3)nc2)cc1` [Example 92, 2-Pheny-pyrimidine-5-carboxylic acid 4-carbamoyl-benzylamide]: the pIC50 is 7.80.

In the case of `CCOP(=O)(Cc1ccc(NC(=O)c2cnc(-c3ccccc3)nc2)cc1)OCC` [Example 98], the pIC50 is 7.42.

For the molecule `CCOP(=O)(CCCCNC(=O)c1cnc(-c2ccccc2)nc1)OCC` [Example 99, {4-[(2-Phenyl-pyrimidine-5-carbonyl)-amino]-butyl)-phosphonic acid diethyl ester], the pIC50 is 7.63.

`CCOP(=O)(OCC)C(NC(=O)c1cnc(-c2ccccc2)nc1)c1ccccc1` (stereo not drawn) [Example 101, {Phenyl-[(2-phenyl-pyrimidine-5-carbonyl)-amino]-methyl)-phosphonic acid diethyl ester]: the pIC50 was 7.32.
